Measurements published in patent US20250255867A1 (Kadmon Corporation, LLC, priority 2022, published 2025).

Legend:
Format in all cases: in vivo, human
patients with cGVHD [1] = test: Example 1 phase IIa dose-finding study: cGVHD response per 2014 NIH Consensus Criteria (ORR, BOR, DOR, TTR, organ response); conditions: for DOR Median (95% CI): responder population
Protocol: Eligible patients were allogeneic bone marrow transplant or allogeneic hematopoietic cell transplant (alloHCT) recipients of age ≥18 years with persistent cGVHD manifestations after having received one to three prior systemic lines of therapy and who were receiving corticosteroid treatment with or without a calcineurin inhibitor and/or concurrent extracorporeal photopheresis.
(FIG. 1) Before enrollment of the subsequent cohort, safety data in each previous cohort were analyzed after eight patients reached two months of treatment to assure that there was no safety signal. […] No safety concerns were identified, allowing for planned dose escalation.
Progression was defined per the 2014 NIH cGVHD Consensus Criteria. Long-term follow-up was conducted every 8 weeks until study closeout. […] Screening was conducted within 28 days of the first study dose. Response was initially assessed after two cycles; however, this was amended to evaluate response on day 1 of each cycle, starting at cycle 2 day 1.
(§1) All responses were assessed by the investigators.
Percentage of Participants With Overall Response (OR): OR was defined as the percentage of participants with complete response (CR) or partial response (PR). The OR determination of chronic graft versus host disease (cGVHD) was based on cGVHD response assessment performed by clinicians as per the 2014 National Institutes of Health (NIH) Consensus Development Project for Clinical Trials in cGVHD criteria. CR was defined as the resolution of all manifestations in each organ or site. PR was defined as the improvement in at least 1 organ or site without progression in any other organ or site; and cGVHD progression was defined as the clinically meaningful worsening in 1 or more organs regardless of improvement in other organs.
Duration of Response (DOR). The DOR was defined as the time (in weeks) from first documentation of response to the time of first documentation of deterioration from best response (e.g., CR to PR, or PR to […]). LOR included the response status of unchanged (LOR-U), mixed (LOR-M), or progression (LOR-P). […] Kaplan-Meier was used for the analysis.
Best Overall Response (BOR). BOR was defined as the participants with either a CR or PR or lack of response (LOR), where LOR included the response status of unchanged (LOR-U), mixed (LOR-M), or progression (LOR-P). BOR was assessed per the 2014 NIH Consensus Development Project for Clinical Trials in cGVHD criteria. […] Analysis was performed on mITT population.
Best Response in Each Individual Organ. Best response was defined as the percentage of participants with CR or PR. Response was assessed per the 2014 NIH Consensus Development Project for Clinical Trials in cGVHD criteria; CR was defined as the resolution of all manifestations in each organ or site; PR was defined as the improvement in at least 1 organ or site without progression in any other organ or site. Organ response assessment was performed on 9 individual organs: skin, eyes, mouth, esophagus, upper GI, lower GI, liver, lungs, and joints and fascia. […] Analysis was performed on mITT population. Here, ‘number analyzed’=participants with available data for each specified category.

patients with cGVHD [2] = test: Example 1: Lee cGVHD Symptom Scale (LSS)
Protocol: as §1
QOL assessment. […] Thirty-five percent of all patients (37% of responders and 32% of nonresponders) reported a clinically meaningful improvement in LSS score on consecutive assessments.
Change From Baseline in Overall Score on Lee cGvHD Symptom Scale at Specified Time Points. Lee cGVHD symptom scale, a patient-reported symptom scale used to measure symptom burden and has 7 subscales (Skin, Eyes and Mouth, Breathing, Eating and Digestion, Muscles and Joints, Energy, and Mental and Emotional) with ratings as follows: 0—Not at all, 1—Slightly, 2—Moderately, 3—Quite a bit, 4—Extremely, with lower values representing better outcome. Score for each subscale was normalized to a score ranged from 0 to 100, where higher score-worse symptoms. An overall score was calculated as average of these 7 subscales. EOT visit was performed within 3 days after the participant's last dose of study drug. Baseline value was defined as valid and last non-missing value obtained within 28 days prior to participant receiving first study medication. […] Analysis was performed on mITT population. Here, ‘number analyzed’=participants with available data for each specified category. Here, ‘0’ in the number analyzed field signifies that none of the participants were available for the analysis at the specified time points.

subjects with cGVHD = test: Example 2: 7-day LSS summary score; conditions: for Clinically significant improvement from baseline (LSS), Overall: decrease ≥7 points in LSS score, mITT population
Protocol: All responses were assessed by the study site investigators.

[3] = Cohort 1 200 mg QD, 17 analyzed
[4] = Cohort 2 200 mg BID, 16 analyzed
[5] = Cohort 3 400 mg QD, 21 analyzed

CC(C)NC(=O)COc1cccc(-c2nc(Nc3ccc4[nH]ncc4c3)c3ccccc3n2)c1 [Belumosudil, 2-{3-[4-(1H-indazol-5-ylamino)-2-quinazolinyl]phenoxy}-N-(propan-2-yl) acetamide]
Best response (CR or PR) in skin, percentage of participants (patients with cGVHD [1]; Cohort 1 200 mg QD): (23%) | Best response in esophagus, percentage of participants (patients with cGVHD [1]; Cohort 1 200 mg QD): (50%) | Best response in joints and fascia, percentage of participants (patients with cGVHD [1]; Cohort 1 200 mg QD): (55%) | ORR, % (95% CI) (patients with cGVHD [1]; Cohort 1 200 mg QD): 65% | ORR, refractory to previous LOT (patients with cGVHD [1]; Cohort 1 200 mg QD): 7/11 (64, 31 to % | ORR, severe cGVHD (patients with cGVHD [1]; Cohort 1 200 mg QD): 8/12 (67, 35 to % | ORR, ≤2 prior LOTs subgroup (patients with cGVHD [1]; Cohort 1 200 mg QD): 10/15 (67, 38 to % | ORR, ≤4 organs involved (patients with cGVHD [1]; Cohort 1 200 mg QD): 4/8 (50, 16 to % | BOR: CR (patients with cGVHD [1]; [3]): 0 participants | BOR: LOR-P (patients with cGVHD [1]; [3]): 2 participants | BOR: LOR-U (patients with cGVHD [1]; [3]): 2 participants | BOR: PR (patients with cGVHD [1]; [3]): 11 participants | ORR, % (95% CI) (patients with cGVHD [1]; Cohort 1 200 mg QD, listed as KD025): 65 (38 to 86) % | DOR Median (95% CI) (patients with cGVHD [1]; Cohort 1 200 mg QD): 40 (8-na* %) weeks | Best response (CR or PR) in skin, percentage of participants (patients with cGVHD [1]; Cohort 2 200 mg BID): (17%) | Best response in liver, percentage of participants (patients with cGVHD [1]; Cohort 2 200 mg BID): (50%) | ORR, % (95% CI) (patients with cGVHD [1]; Cohort 2 200 mg BID): 69% | ORR, refractory to previous LOT (patients with cGVHD [1]; Cohort 2 200 mg BID): 6/9 (67, 30 to % | ORR, severe cGVHD (patients with cGVHD [1]; Cohort 2 200 mg BID): 9/14 (64, 35 to % | ORR, ≤2 prior LOTs subgroup (patients with cGVHD [1]; Cohort 2 200 mg BID): 5/8 (63, 25 to % | ORR, ≤4 organs involved (patients with cGVHD [1]; Cohort 2 200 mg BID): 8/10 (80, 44 to % | BOR: CR (patients with cGVHD [1]; [4]): 0 participants | BOR: LOR-P (patients with cGVHD [1]; [4]): 1 participants | BOR: LOR-U (patients with cGVHD [1]; [4]): 3 participants | BOR: PR (patients with cGVHD [1]; [4]): 11 participants | ORR, % (95% CI) (patients with cGVHD [1]; Cohort 2 200 mg BID, listed as KD025): 69 (41 to 89) % | DOR Median (95% CI) (patients with cGVHD [1]; Cohort 2 200 mg BID): 11 (2-35%) weeks | ORR, % (95% CI) (patients with cGVHD [1]; Cohort 3 400 mg QD): 57% | ORR, refractory to previous LOT (patients with cGVHD [1]; Cohort 3 400 mg QD): 9/15 (60, 32 to % | ORR, severe cGVHD (patients with cGVHD [1]; Cohort 3 400 mg QD): 8/16 (50, 25 to % | ORR, ≤2 prior LOTs subgroup (patients with cGVHD [1]; Cohort 3 400 mg QD): 8/12 (67, 35 to % | ORR, ≤4 organs involved (patients with cGVHD [1]; Cohort 3 400 mg QD): 7/9 (78, 40 to % | BOR: CR (patients with cGVHD [1]; [5]): 0 participants | BOR: LOR-M (patients with cGVHD [1]; [5]): 0 participants | BOR: LOR-P (patients with cGVHD [1]; [5]): 1 participants | BOR: LOR-U (patients with cGVHD [1]; [5]): 4 participants | BOR: PR (patients with cGVHD [1]; [5]): 12 participants | ORR, refractory to previous LOT (patients with cGVHD [1]; Total): 63% | ORR, severe cGVHD (patients with cGVHD [1]; Total): 60% | ORR, ≤2 prior LOTs subgroup (patients with cGVHD [1]; Total): 66% | ORR, ≤4 organs involved (patients with cGVHD [1]; Total): 70% | ORR, % (95% CI) (patients with cGVHD [1]; Total N=54, listed as KD025): 65 (51 to 77) % | ORR, refractory to previous LOT (patients with cGVHD [1]; Total, listed as KD025): 22/35 (63, 45 to % | ORR, severe cGVHD (patients with cGVHD [1]; Total, listed as KD025): 25/42 (60, 43 to % | ORR, ≤2 prior LOTs subgroup (patients with cGVHD [1]; Total, listed as KD025): 23/35 (66, 48 to % | ORR, ≤4 organs involved (patients with cGVHD [1]; Total, listed as KD025): 19/27 (70, 50 to % | ORR among patients with nonsevere cGVHD (patients with cGVHD [1]; pooled cohorts): 83% | Clinically significant improvement (LSS), nonresponder (patients with cGVHD [2]; Cohort 1 200 mg QD): 1/6 (17, 0.4 to % | Clinically significant improvement (LSS), responder (patients with cGVHD [2]; Cohort 1 200 mg QD): 8/11 (73, 39 to % | Clinically significant improvement (LSS), overall (patients with cGVHD [2]; Cohort 1 200 mg QD, decrease ≥7 points): 9 (53, 28 to 77) % | Clinically significant improvement (LSS), nonresponder (patients with cGVHD [2]; Cohort 2 200 mg BID): 4/5 (80, 28 to % | Clinically significant improvement (LSS), overall (patients with cGVHD [2]; Cohort 2 200 mg BID): 7 (44, 20 to 70) % | Clinically significant improvement (LSS), responder (patients with cGVHD [2]; Cohort 2 200 mg BID): 3/11 (27, 6 to % | Clinically significant improvement (LSS), nonresponder (patients with cGVHD [2]; Cohort 3 400 mg QD): 2/8 (25, 3 to % | Clinically significant improvement (LSS), overall (patients with cGVHD [2]; Cohort 3 400 mg QD): 11 (52, 30 to % | Clinically significant improvement (LSS), responder (patients with cGVHD [2]; Cohort 3 400 mg QD): 9/13 (69, 39 to % | Clinically significant improvement (LSS), nonresponder (patients with cGVHD [2]; Total): 7/19 (37, 16 to % | Clinically significant improvement (LSS), responder (patients with cGVHD [2]; Total): 20/35 (57, 39 to % | Clinically significant improvement (LSS), overall (patients with cGVHD [2]; Total N=54, listed as KD025): 27 (50, 36 to % | Clinically significant improvement (LSS), overall (patients with cGVHD [2]; Total N=54, listed as belumosudil): 50% | Clinically meaningful improvement in 7-day LSS summary score (subjects with cGVHD; 200 mg daily, nonresponders): 29% | Clinically meaningful improvement in 7-day LSS summary score (subjects with cGVHD; 200 mg daily, responders): 69% | Clinically meaningful improvement in 7-day LSS summary score (subjects with cGVHD; 200 mg twice daily, nonresponders): 33% | Clinically meaningful improvement in 7-day LSS summary score (subjects with cGVHD; 200 mg twice daily, responders): 71% | Clinically significant improvement from baseline (LSS), Overall (subjects with cGVHD; 200 mg daily (n = 66)): 39 (59) n (%) | Clinically significant improvement from baseline (LSS), Overall (subjects with cGVHD; 200 mg twice daily (n = 66)): 41 (62) n (%)
